Measured values reported in patent US20020197244A1, “Compositions and methods for regulating phagocytosis and ICAM-1 expression” (priority 1998, published 2002).

Tests used:
[1] = tested on: Human keratinocytes; assay: Timing of effect on keratinocyte microsphere phagocytosis; format: cell-based; design: key: +: Plus signs indicate an effect on phagocytosis; −: minus signs indicate no effect on phagocytosis; −/+: plus/minus signs indicate a marginal effect on phagocytosis; conditions: effect = decrease for Compound I, increase for SLIGRL
Method: (§1) In this example, human primary keratinocytes or the human keratinocyte cell line HaCaT were used as in vitro model systems to study the effect of PAR-2 regulators on keratinocyte phagocytosis. The human primary keratinocytes used are commercially available from Clonetics (San Diego, Calif.). Cells were plated on chamber slides, at 2 chambers/slide and 60,000 cells/chamber. Cells were treated once daily, for two or three days, with Compound I (1μM), SLIGRL (10μM), or vehicle (Phosphate-buffered saline, (“PBS”) from Gibco-BRL (Gaithersburg, Md.). After two or three days of exposure to the test compounds, cells were exposed to Nile-red or FITC fluorescent microspheres, 1 μm in diameter, 50 microspheres/cell, for two hours at 37° C. Microspheres were from Molecular Probes (Eugene, Oreg.), and were processed according to manufacturer's instructions. Following that treatment, cells were incubated with 15% Fetal Bovine Serum (“FBS”, from Gibco-BRL), for 15 minutes at 37° C. and rinsed with PBS. At that time, chambers were separated from the slides, and the slides were covered with glycerol and coverslips. Fluorescent microscopy was performed using a Zeiss Axiovert 35 or a Nikon Optiphot-2 microscope.
Human keratinocytes were treated with Compound I or SLIGRL for periods of time ranging from one hour to two days. At the end of the treatment period, the cells were treated with microspheres as described in Example 1. […] Plus signs indicate an effect on phagocytosis, minus signs indicate no effect on phagocytosis, and plus/minus signs indicate a marginal effect on phagocytosis. The effects measured were a decrease for Compound I and an increase for SLIGRL. […] This implies that the PAR-2 signaling results in new protein synthesis, a reduction in protein synthesis when a turnover time is required to eliminate the existing relevant protein(s), or a rearrangement of proteins (as occurs in the reorganization of cytoskeletal components).

[2] = tested on: ICAM-1; assay: ICAM-1 immuno-precipitation and Western blotting in keratinocytes; format: cell-based; conditions: treated keratinocytes; FIG. 6B
Method: Immuno-precipitation and Western blotting experiments were performed, according to known methods, to assess the level of ICAM-1 protein in treated keratinocytes.

[3] = tested on: melanocytes; assay: Fluorescent microsphere ingestion by melanocytes; format: cell-based; conditions: which do not express PAR-2
[4] = tested on: fibroblast cell line 92-3T3; assay: Fluorescent microsphere ingestion by fibroblasts; format: cell-based; conditions: vs untreated fibroblasts; FIG. 3
Method: as §1
The experiment described in Example 1 was repeated using the fibroblast cell line 92-3T3 (obtained from the ATCC in Rockville, Md.). Fibroblasts are not known to posses phagocytic ability.

[5] = tested on: human age spots; assay: Lightening of human age spots, topical treatment; format: in vivo; conditions: STI, 1%, in liposomes (20 mg/ml), twice a day, 8 weeks
Method: An individual with three age spots on the dorsum of […] hand was treated for eight weeks, twice a day, as follows. The proximal age spot was treated with placebo, containing 20 mg/ml of liposomes. The median age spot was not treated. The distal age spot was treated with STI, 1%, in liposomes (20 mg/ml). GDL liposomes were prepared as set forth in Niemiec, et al., with the exception of the following changes. The non-ionic liposomal formulation contained glycerol dilaurate (Emulsynt GDL, ISP Van Dyk)/cholesterol (Croda)/polyoxyethylene-10-stearyl ether (Brij76, ICI)/polyoxyethylene-9-lauryl ether, as at ratio of 37.5:12.5:33.3:16.7. Hepes buffer, 0.05M, pH 7.4 (Gibco-BRL of Gaithersburg, Md.) was used as the aqueous phase in the preparation of the liposomes. UV and visible light digital pictures were taken at times of 0, 4 and 8 weeks of treatment. L* (brightness) values were calculated from the images using Adobe Photoshop.
FIG. 11 is a composite of four pictures. The left panel is a visible light picture of the hand, before (upper) and after (lower) 8 weeks of treatment. At this orientation, the proximal age spot is placebo-treated, the median age spot is untreated, and the distal age spot is STI-treated.

CN[C@H](Cc1ccccc1)C(=O)N1CCCC1C(=O)N[C@@H](CCCNC(=N)N)C(=O)c1nc2ccccc2s1 (stereo partly drawn) [Compound I, (S)-N-Methyl-D-phenylalanyl-N-[4-[(aminoiminomethyl)amino]-1-(2-benzothiazolylcarbonyl)butyl]-L-prolinamide]
effect on phagocytosis ([1]; 1 hour of treatment): −
effect on phagocytosis ([1]; 2 hours of treatment): −
effect on phagocytosis ([1]; 4 hours of treatment): −
effect on phagocytosis ([1]; 6 hours of treatment): −
effect on phagocytosis ([1]; 8 hours of treatment): −/+
effect on phagocytosis ([1]; 16 hours of treatment): +
effect on phagocytosis ([1]; 24 hours of treatment): +
effect on phagocytosis ([1]; 48 hours of treatment): +
level of ICAM-1 protein expression [2]: decreased the level of ICAM-1 expression

SLIGRL [reference compound]
microsphere ingestion [3]: no inducible effect on microsphere ingestion
number of ingested beads [4]: increased the number of ingested beads
effect on phagocytosis ([1]; 1 hour of treatment): −
effect on phagocytosis ([1]; 2 hours of treatment): −
effect on phagocytosis ([1]; 4 hours of treatment): −
effect on phagocytosis ([1]; 6 hours of treatment): −
effect on phagocytosis ([1]; 8 hours of treatment): −/+
effect on phagocytosis ([1]; 16 hours of treatment): +
effect on phagocytosis ([1]; 24 hours of treatment): +
effect on phagocytosis ([1]; 48 hours of treatment): +
level of ICAM-1 protein expression [2]: increased the level of ICAM-1 expression

B1: STI: Soybean trypsin inhibitor, a serine protease inhibitor capable of affecting the PAR-2 pathway (protein, UniProt P01070 25-205, looked up)
Trypsin inhibitor A: DFVLDNEGNPLENGGTYYILSDITAFGGIRAAPTGNERCPLTVVQSRNELDKGIGTIISSPYRIRFIAEGHPLSLKFDSFAVIMLCVGIPTEWSVVEDLPEGPAVKIGENKDAMDGWFRLERVSDDEFNNYKLVFCPQQAEDDKCGDIGISIDHDDGTRRLVVSKNKPLVVQFQKLDKESL
increase in L* (brightness) ([5]; calculated from images): 15 L* units
age spot appearance ([5]; one individual, FIG. 11): became lighter
